Data from patent publication US20210213049A1, “METHOD AND MOLECULAR HYDROGEN-CONTAINING COMPOSITION FOR PROMOTION OF POSTOPERATIVE RECOVERY” (MiZ Company Limited, priority 2020, published 2021).

Columns and labels:
[1] = stated as known; cited from earlier work
[2] = test system: person who underwent hip replacement surgery because of coxarthrosis
Text: A person underwent hip replacement surgery because of coxarthrosis (their right leg being […] shorter). The surgery was initiated at 10:00 a.m. on Jul. 10, 2019 and completed around 11 o'clock a.m. on the same day.
Initially, use of crutches for three months was planned as in usual cases, based on the anticipated postoperative course (that is, the patient was expected to use both crutches for the first 1.5 months and one crutch for the subsequent 1.5 months).

SMILES	superoxide eliminating effect compared with H2 [1]	time after the surgery at which the patient did not need to use crutches ([2]; hydrogen gas approximately 5.0%, approximately 200 mL/min, inhaled three to four hours per day from immediately after surgery, with rehabilitation, crutches for three months had been planned)	postoperative recovery ([2]; hydrogen inhalation from immediately after hip replacement surgery, approximately 5.0% hydrogen, three to four hours per day, with rehabilitation)	discharge from hospital (date) ([2]; surgery on Jul. 10, 2019, hydrogen inhalation from immediately after the surgery)
[2H][2H] [D2, deuterium]	stronger superoxide eliminating effect than that of H2	–	–	–
[HH] [hydrogen, molecular hydrogen]	–	13 days	achieved early postoperative recovery	July 20
